Test results published in patent publication US20100075965A1, “PI3 KINASE INHIBITORS AND METHODS OF THEIR USE” (Novartis AG, priority 2006, published 2010).
Like-named read-outs stand apart in the source and are kept apart here.

Assays:
[1] = target: PI3 K Alpha (Homo sapiens, UniProt P42336); test: PI3 kinase phosphorylation assays (homogenous solution phase, one step solid phase, ATP depletion/KinaseGlo); type: biochemical
Description: Compounds to be tested are dissolved in DMSO and directly distributed into 384-well flashplates at 1.25 μL per well. To start the reaction, 20 μL of 6 nM PI3 kinase are added into each well followed by 20 μL of 400 nM ATP containing a trace of radiolabeled ATP and 900 nM 1-alpha-phosphatidylinositol (PI). The plates are briefly centrifuged to remove any air gap. The reaction is performed for 15 minutes and then stopped by the addition of 20 μL of 100 mM EDTA. The stopped reaction is incubated overnight at RT to allow the lipid substrate to bind by hydrophobic interaction to the surface of the flashplate. The liquid in the wells is then washed away, and the labeled substrate is detected with scintillation counting.
This method is similar to Assay 1 except that the lipid substrate (1-alpha-phosphatidylinositol (PI)) is first dissolved in a coating buffer and incubated on flashplate at room temperature overnight to allow the lipid substrate to bind by hydrophobic interaction to the surface of the flashplate. Unbound substrate is then washed away. On the day of assay, 20 μL of 6 nM PI3 kinase are added into each well followed by 20 μL of 400 nM ATP containing trace of radiolabeled ATP. Compounds are added together with enzyme and ATP to the lipid-coated plates. The plates are briefly centrifuged to remove any air gap. The reaction is performed for two to three hours. The reaction is stopped by addition of 20 μL of 100 mM EDTA or by immediate plate washing. Phosphorylated lipid substrate is detected by scintillation counting.
Compounds to be tested are dissolved in DMSO and directly distributed into a black 384-well plate at 1.25 μL per well. To start the reaction, 25 μL of 10 nM PI3 kinase and 5 μg/mL 1-alpha-phosphatidylinositol (PI) are added into each well followed by 25 μL of 2 μM ATP. The reaction is performed until approx 50% of the ATP is depleted, and then stopped by the addition of 25 μL of KinaseGlo solution. The stopped reaction is incubated for 5 minutes and the remaining ATP is then detected via luminescence.

[2] = system: A2780 cells; test: Viability assay in A2780 (Cell Titer Glo); type: cell-based, human; details: A2780 cells, read-out: A2780 Cell prolif. EC50
Description: Cell viability was assessed with Cell Titer Glo assay, Promega. Cells were seeded in TC treated 96-well plates at a density of 1,000 (A2780 cells) per well in DMEM with 10% FBS, 1% Sodium Pyruvate, and 1% Penicillin Streptomycin for a minimum of 2 hrs prior to addition of compound. Test compounds were serially diluted (3 fold) in DMSO to 500× the final concentration. For each concentration of test compound, 2 μL (500×) aliquots of compound or 100% DMSO (control) were diluted in 500 μL of culture medium to 2× final concentration then diluted 1× on the cells. Cells were incubated for 72 hrs at 37° C., 5% CO2. After which Cell Titer Glo is added to determine viable cells, the assay was performed according to the manufacturer's instruction (Promega Corporation, Madison, Wis. USA). Each experimental condition was performed in duplicate. Raw data was imported in Abase and EC50s calculated with XL-fit data analysis software and are shown in Tables 1 and 2 in the column labeled “A2780 Cell prolif. EC50”.

PI3 K Alpha, sequence (P42336 whole entry): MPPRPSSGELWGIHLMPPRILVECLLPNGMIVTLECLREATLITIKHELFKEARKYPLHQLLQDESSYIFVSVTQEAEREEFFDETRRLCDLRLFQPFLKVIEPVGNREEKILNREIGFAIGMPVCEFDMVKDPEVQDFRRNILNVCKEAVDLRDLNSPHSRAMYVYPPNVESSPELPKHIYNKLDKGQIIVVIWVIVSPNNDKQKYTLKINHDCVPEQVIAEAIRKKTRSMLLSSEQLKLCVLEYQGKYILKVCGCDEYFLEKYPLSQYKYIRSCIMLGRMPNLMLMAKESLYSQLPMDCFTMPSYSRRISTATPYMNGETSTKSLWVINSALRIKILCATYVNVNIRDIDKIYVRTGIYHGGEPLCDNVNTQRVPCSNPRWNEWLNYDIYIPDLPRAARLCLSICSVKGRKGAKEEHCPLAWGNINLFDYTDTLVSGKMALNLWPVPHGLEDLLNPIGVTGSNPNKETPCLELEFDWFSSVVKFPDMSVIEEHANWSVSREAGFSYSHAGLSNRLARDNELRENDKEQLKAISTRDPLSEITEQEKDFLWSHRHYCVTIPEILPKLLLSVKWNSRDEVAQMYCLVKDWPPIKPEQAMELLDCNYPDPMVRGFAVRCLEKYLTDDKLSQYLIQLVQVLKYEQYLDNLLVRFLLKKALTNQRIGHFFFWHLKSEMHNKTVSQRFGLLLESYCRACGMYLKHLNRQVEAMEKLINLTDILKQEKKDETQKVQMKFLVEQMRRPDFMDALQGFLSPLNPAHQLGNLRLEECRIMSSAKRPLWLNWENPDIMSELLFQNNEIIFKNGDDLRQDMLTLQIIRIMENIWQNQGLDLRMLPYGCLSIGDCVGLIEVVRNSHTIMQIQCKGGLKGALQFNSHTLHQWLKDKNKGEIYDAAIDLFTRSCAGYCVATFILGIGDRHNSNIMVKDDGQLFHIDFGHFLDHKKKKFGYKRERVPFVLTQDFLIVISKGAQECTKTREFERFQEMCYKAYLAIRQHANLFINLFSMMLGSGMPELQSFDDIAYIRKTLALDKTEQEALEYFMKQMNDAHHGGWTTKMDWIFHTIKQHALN
PI3 K Alpha, sequence (P27986 whole entry partner): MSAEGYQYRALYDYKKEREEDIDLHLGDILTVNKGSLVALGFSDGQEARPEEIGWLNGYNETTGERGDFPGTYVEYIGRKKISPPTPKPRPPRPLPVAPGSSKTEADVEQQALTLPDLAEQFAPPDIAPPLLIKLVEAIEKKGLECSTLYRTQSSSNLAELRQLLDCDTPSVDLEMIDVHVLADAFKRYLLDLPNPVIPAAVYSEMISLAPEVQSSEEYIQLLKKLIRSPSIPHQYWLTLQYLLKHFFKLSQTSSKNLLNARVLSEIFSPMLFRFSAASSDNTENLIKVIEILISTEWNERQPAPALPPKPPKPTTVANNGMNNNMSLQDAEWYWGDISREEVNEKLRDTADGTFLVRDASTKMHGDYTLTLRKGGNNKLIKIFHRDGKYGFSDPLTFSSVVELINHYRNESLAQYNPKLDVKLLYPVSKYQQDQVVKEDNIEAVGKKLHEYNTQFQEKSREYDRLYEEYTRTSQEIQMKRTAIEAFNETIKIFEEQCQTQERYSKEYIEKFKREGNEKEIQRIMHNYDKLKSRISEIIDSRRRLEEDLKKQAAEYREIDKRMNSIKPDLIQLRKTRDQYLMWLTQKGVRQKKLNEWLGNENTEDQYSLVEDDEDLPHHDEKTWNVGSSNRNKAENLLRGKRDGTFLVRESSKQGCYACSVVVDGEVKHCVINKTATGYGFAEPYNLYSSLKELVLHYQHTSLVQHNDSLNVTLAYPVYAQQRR

| SMILES | IC50 ([1]; read-out: PI3K Alpha IC50) [µM] | EC50 ([2]; Homo sapiens) [µM] | EC50 [2] [µM] | IC50 ([1]; ATP depletion assay, read-out: PI3 K Alpha IC50) [µM] |
| --- | --- | --- | --- | --- |
| CC(C)(C)OC(=O)N1CCC1C(=O)Nc1cn2cc(-c3cnc(N)c(OCC(F)(F)F)n3)ccc2n1 (stereo not shown) [Example 174, tert-butyl 2-(6-(5-amino-6-(2,2,2-trifluoroethoxy)pyrazin-2-yl)imidazo[1,2-a]pyridin-2-ylcarbamoyl) azetidine-1-carboxylate] | < 1 | < 25 |  |  |
| CC(=O)Nc1cn2cc(-c3cnc(N)c(C(=O)NCCNS(C)(=O)=O)n3)ccc2n1 [Example 158, 6-(2-acetamido-imidazo[1,2-a]pyridin-6-yl)-3-amino-N-(2-(methylsulfon amido)ethyl) pyrazine-2-carboxamide] | < 1 | < 25 |  |  |
| Nc1ncc(-c2ccc3nc(NC(=O)c4ccccn4)cn3c2)cc1C(F)(F)F [Example 177] | < 1 | < 25 |  |  |
| CC(C)C(=O)Nc1cn2cc(-c3cnc(N)c(C(F)(F)F)c3)ccc2n1 [Example 278, N-(6-(6-amino-5-(trifluoromethyl)pyridin-3-yl)imidazo[1,2-a]pyridin-2-yl)isobutyramide] |  | < 25 |  |  |
| COc1cc(-c2ccc3nc(NC(C)=O)cn3c2C)cnc1N [Example 167, N-(6-(6-amino-5-methoxypyridin-3-yl)-5-methylimidazo[1,2-a]pyridin-2-yl)acetamide] | < 1 | < 25 |  |  |
| Nc1ncc(-c2ccc3nc(NC(=O)c4ccncc4)cn3c2)cc1C(F)(F)F [Example 163] | < 1 | < 25 |  |  |
| CC(=O)Nc1cn2nc(-c3cnc(N)c(N4CCOCC4)n3)ccc2n1 [Example 176, N-(6-(5-amino-6-morpholino-pyrazin-2-yl)imidazo[1,2-b]pyridazin-2-yl)acetamide] | < 1 | < 25 |  |  |
| Nc1ncc(-c2ccc3nc(NC(=O)N4CCCC4c4ccccn4)cn3c2)cc1C(F)(F)F (stereo not shown) [Example 175, N-(6-(6-amino-5-(trifluoromethyl)pyridin-3-yl)imidazo[1,2-a]pyridin-2-yl)-2-(pyridin-2-yl)pyrrolidine-1-carboxamide] | < 1 | < 25 |  |  |
| Cc1ccc(C2CCCN2C(=O)Nc2cn3cc(-c4cnc(N)c(C(F)(F)F)c4)ccc3n2)s1 (stereo not shown) [Example 180, N-(6-(6-amino-5-(trifluoromethyl)pyridin-3-yl)imidazo[1,2-a]pyridin-2-yl)-2-(5-methyithiophen-2-yl)pyrrolidine-1-carboxamide] | < 1 | < 25 |  |  |
| CC(=O)Nc1cn2cc(-c3cnc(N)c(OC4CCNCC4)n3)ccc2n1 [Example 280, N-(6-(5-amino-6-(piperidin-4-yloxy)pyrazin-2-yl)imidazo[1,2-a]pyridin-2-yl)acetamide] |  | < 25 |  |  |
| CC(C)(C)OC(=O)N1CCC1C(=O)Nc1cn2nc(-c3cnc(N)c(C(F)(F)F)c3)ccc2n1 (stereo not shown) [Example 279, tert-butyl 2-(6-(6-amino-5-(trifluoromethyl)pyridin-3-yl)imidazo[1,2-b]pyridazin-2-ylcarbamoyl) azetidine-1-carboxylate] |  |  | < 25 |  |
| CNC(=O)[C@@H]1CCCN1C(=O)Nc1cn2cc(-c3cnc(N)c(C(F)(F)F)c3)ccc2n1 [Example 281, (S)-N1-(6-(6-amino-5-(trifluoromethyl)pyridin-3-yl)imidazo[1,2-a]pyridin-2-yl)-N2-methylpyrrolidine-1,2-dicarboxamide] |  | < 25 |  |  |
| CC(=O)N1CCCC[C@H]1C(=O)Nc1cn2cc(-c3cnc(N)c(C(F)(F)F)c3)ccc2n1 [Example 282, (S)-1-acetyl-N-(6-(6-amino-5-(trifluoromethyl)pyridin-3-yl)imidazo[1,2-a]pyridin-2-yl)piperidine-2-carboxamide] |  | < 25 |  |  |
| COCCOc1nc(-c2ccc3nc(NC(C)=O)cn3n2)cnc1N [Example 287, N-(6-(5-amino-6-(2-methoxyethoxy)pyrazin-2-yl)imidazo[1,2-b]pyridazin-2-yl)acetamide] |  | < 10 |  |  |
| CC(=O)Nc1cn2nc(-c3cnc(N)c(OCC(F)(F)F)n3)ccc2n1 [Example 284, N-(6-(5-amino-6-(2,2,2-trifluoroethoxy)pyrazin-2-yl)imidazo[1,2-b]pyridazin-2-yl)acetamide] |  | < 10 |  |  |
| CC(=O)Nc1nc2ccc(-c3ccc(N)nc3)cn2c1Br [Example 14, N-[6-(6-Amino-pyridin-3-yl)-3-bromo-imidazo[1,2-a]pyridin-2-yl]-acetamide] | < 10 |  |  |  |
| CC(=O)Nc1nc2ccc(-c3ccc(NC4CCNCC4)nc3)cc2s1 [Example 2-19, N-{6-[6-(Piperidin-4-ylamino)-pyridin-3-yl]-benzothiazol-2-yl}-acetamide] |  |  |  | < 1 |
| Nc1ncc(-c2ccc3nc(NC(=O)C4CCCC(=O)N4)cn3c2)cc1C(F)(F)F (stereo not shown) [Example 266, N-(6-(6-amino-5-(trifluoromethyl)pyridin-3-yl)imidazo[1,2-a]pyridin-2-yl)-6-oxo-piperidine-2-carboxamide] | < 1 |  |  |  |

Second part, the molecule after the results:

| IC50 ([1]; read-out: PI3K Alpha IC50) [µM] | EC50 ([2]; Homo sapiens) [µM] | EC50 [2] [µM] | IC50 ([1]; ATP depletion assay, read-out: PI3 K Alpha IC50) [µM] | SMILES |
| --- | --- | --- | --- | --- |
| < 1 | < 10 |  |  | Nc1ncc(-c2ccc3nc(NC(=O)N4CCC[C@H]4CO)cn3c2)cc1C(F)(F)F [Example 232, (S)-N-(6-(6-amino-5-(trifluoromethyl)pyridin-3-yl)imidazo[1,2-a]pyridin-2-yl)-2-(hydroxymethyl) pyrrolidine-1-carboxamide] |
| < 1 | < 10 |  |  | CC(=O)Nc1cn2cc(-c3ccc(N)nc3F)ccc2n1 [Example 210, N-(6-(6-amino-2-fluoropyridin-3-yl)imidazo[1,2-a]pyridin-2-yl)acetamide] |
| < 1 | < 10 |  |  | Nc1ncc(-c2ccc3nc(NC(=O)CCCn4ccnc4)cn3c2)cc1C(F)(F)F [Example 238, N-(6-(6-amino-5-(trifluoromethyl)pyridin-3-yl)imidazo[1,2-a]pyridin-2-yl)-4-(1H-imidazol-1-yl)butanamide] |
| < 1 | < 10 |  |  | CC(=O)Nc1cn2cc(-c3cnc(N)c(N4CCOCC4)n3)ccc2n1 [Example 201, N-(6-(5-amino-6-morpholino-pyrazin-2-yl)imidazo[1,2-a]pyridin-2-yl)acetamide] |
| < 1 | < 10 |  |  | CC(=O)Nc1nc2ccc(-c3cnc(N)c(Br)c3)cn2c1Br [Example 15, N-[6-(6-Amino-5-bromo-pyridin-3-yl)-3-bromo-imidazo[1,2-a]pyridin-2-yl]-acetamide] |
| < 1 | < 10 |  |  | Nc1ncc(-c2ccc3nc(NC(=O)N4CCCC4C(F)(F)F)cn3c2)cc1C(F)(F)F (stereo not shown) [Example 191] |
| < 1 | < 10 |  |  | C[C@H](N)C(=O)Nc1cn2nc(-c3cnc(N)c(C(F)(F)F)c3)ccc2n1 [Example 239, (S)-2-amino-N-(6-(6-amino-5-(trifluoromethyl)pyridin-3-yl)imidazo[1,2-b]pyridazin-2-yl)propanamide] |
| < 10 | < 10 |  |  | NC(=O)N1CCC[C@H]1C(=O)Nc1cn2cc(-c3cnc(N)c(C(F)(F)F)c3)ccc2n1 [Example 46, (S)-N2-(6-(6-amino-5-(trifluoromethyl)pyridin-3-yl)imidazo[1,2-a]pyridin-2-yl)pyrrolidine-1,2-dicarboxamide] |
| < 1 | < 10 |  |  | COc1ccccc1-c1cc(-c2ccc3nc(NC(C)=O)cn3n2)cnc1N [Example 212, N-(6-(6-amino-5-(2-methoxyphenyl)pyridin-3-yl)imidazo[1,2-b]pyridazin-2-yl)acetamide] |
|  | < 10 |  |  | NC(=O)[C@@H]1CCCN1C(=O)Nc1cn2cc(-c3cnc(N)c(C(F)(F)F)c3)ccc2n1 [Example 285, (S)-N1-(6-(6-amino-5-(trifluoromethyl)pyridin-3-yl)imidazo[1,2-a]pyridin-2-yl)pyrrolidine-1,2-dicarboxamide] |
|  | < 10 |  |  | CCN1CCC(Oc2nc(-c3ccc4nc(NC(C)=O)cn4c3)cnc2N)CC1 [Example 286, N-(6-(5-amino-6-(1-ethylpiperidin-4-yloxy)pyrazin-2-yl)imidazo[1,2-a]pyridin-2-yl)acetamide] |
